Data published in ChEMBL document CHEMBL1147208, “Asymmetric synthesis of chiral piperazinylpropylisoxazoline ligands for dopamine receptors” (Eur J Med Chem, 2007).

What was measured:
[1] = biological target: D(3) dopamine receptor (Homo sapiens, UniProt P35462); assay: biochemical
Description: Displacement of [3H]YM-09151-2 from human cloned dopamine D3 receptor expressed in CHO cells

[2] = biological target: T1, D(4) dopamine receptor (Homo sapiens, UniProt P21917); assay: Displacement of [3H]YM-09151-2 from human cloned dopamine D4 receptor expressed in CHO cells
T1 sequence (P21917 whole entry): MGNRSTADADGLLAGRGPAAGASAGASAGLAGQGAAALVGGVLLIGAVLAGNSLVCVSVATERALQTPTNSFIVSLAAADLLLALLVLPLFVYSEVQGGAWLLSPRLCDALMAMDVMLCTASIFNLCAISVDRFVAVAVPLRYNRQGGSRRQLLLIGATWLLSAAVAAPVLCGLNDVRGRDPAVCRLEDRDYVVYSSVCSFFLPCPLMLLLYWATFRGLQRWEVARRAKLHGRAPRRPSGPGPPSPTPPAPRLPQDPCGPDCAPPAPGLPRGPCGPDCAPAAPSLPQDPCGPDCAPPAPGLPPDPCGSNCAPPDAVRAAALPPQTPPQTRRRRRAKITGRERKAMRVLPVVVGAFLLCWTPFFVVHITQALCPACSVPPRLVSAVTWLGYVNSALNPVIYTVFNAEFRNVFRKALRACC

[3] = biological target: D(2) dopamine receptor (Homo sapiens, UniProt P14416); assay: Displacement of [3H]spiperone from human cloned dopamine receptor D2 long expressed in CHO cells; type: cell-based
Sequence of D(2) dopamine receptor (P14416 whole entry): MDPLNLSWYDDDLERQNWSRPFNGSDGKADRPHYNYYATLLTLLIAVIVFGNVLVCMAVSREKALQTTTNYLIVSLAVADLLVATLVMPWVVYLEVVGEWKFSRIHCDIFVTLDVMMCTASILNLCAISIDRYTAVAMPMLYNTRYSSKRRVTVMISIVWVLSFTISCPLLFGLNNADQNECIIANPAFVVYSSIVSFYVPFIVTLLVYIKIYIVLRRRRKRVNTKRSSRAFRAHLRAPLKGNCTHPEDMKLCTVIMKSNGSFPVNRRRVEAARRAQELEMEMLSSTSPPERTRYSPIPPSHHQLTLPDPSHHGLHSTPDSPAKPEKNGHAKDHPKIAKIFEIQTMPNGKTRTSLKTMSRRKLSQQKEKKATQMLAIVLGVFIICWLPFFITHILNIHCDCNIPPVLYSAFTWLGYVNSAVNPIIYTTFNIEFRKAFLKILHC

Sequence of D(3) dopamine receptor (P35462 whole entry): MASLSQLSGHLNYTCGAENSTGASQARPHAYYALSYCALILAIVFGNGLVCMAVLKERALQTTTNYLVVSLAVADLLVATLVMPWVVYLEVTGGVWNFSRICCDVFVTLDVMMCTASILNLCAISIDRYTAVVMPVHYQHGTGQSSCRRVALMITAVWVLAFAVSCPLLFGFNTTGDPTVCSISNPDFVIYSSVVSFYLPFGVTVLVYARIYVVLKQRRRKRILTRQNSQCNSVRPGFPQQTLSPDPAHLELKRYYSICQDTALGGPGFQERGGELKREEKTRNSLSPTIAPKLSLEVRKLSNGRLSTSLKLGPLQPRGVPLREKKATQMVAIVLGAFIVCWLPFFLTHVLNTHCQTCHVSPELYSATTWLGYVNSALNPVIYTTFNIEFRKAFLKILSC

| Compound | Ki [1] | Ki [2] | Ki [3] |
| --- | --- | --- | --- |
| COc1ccc(C2=NO[C@H](CCCN3CCN(C(c4ccc(F)cc4)c4ccc(F)cc4)CC3)C2)cc1OC | 2.1 nM | 426 nM | 80 nM |
| CCOc1ccccc1N1CCN(CCC[C@@H]2CC(c3ccc(OC)c(OC)c3)=NO2)CC1 | 2.1 nM | 507 nM | 46 nM |
| CCOc1ccccc1N1CCN(CCC[C@H]2CC(c3ccc(OC)c(OC)c3)=NO2)CC1 | 5.1 nM | 225 nM | 70 nM |
| COc1ccc(C2=NO[C@@H](CCCN3CCN(C(c4ccc(F)cc4)c4ccc(F)cc4)CC3)C2)cc1OC | 20 nM | 483 nM | 400 nM |
